In article PMC7615656 (European journal of pharmacology, 2010):

How the values were obtained:
[1] = target: recombinant rat α1β3γ2F77I receptors (Rattus norvegicus, UniProt P18508+P62813, F115I); test: Two-electrode voltage clamp of GABA-induced chloride currents in Xenopus oocytes; format: cell-based; conditions: α1β3γ2F77I; for efficacy (% GABA EC3): ns = not significant
α1β3 receptors = α1β3 receptors (Rattus norvegicus, UniProt P62813+P63079); test: Zn2+ reduction of GABA-induced chloride flux; format: cell-based; conditions: 10 μM Zn2+, means ± SEM, n=4
α1β3 receptors, sequence (P62813 28-455): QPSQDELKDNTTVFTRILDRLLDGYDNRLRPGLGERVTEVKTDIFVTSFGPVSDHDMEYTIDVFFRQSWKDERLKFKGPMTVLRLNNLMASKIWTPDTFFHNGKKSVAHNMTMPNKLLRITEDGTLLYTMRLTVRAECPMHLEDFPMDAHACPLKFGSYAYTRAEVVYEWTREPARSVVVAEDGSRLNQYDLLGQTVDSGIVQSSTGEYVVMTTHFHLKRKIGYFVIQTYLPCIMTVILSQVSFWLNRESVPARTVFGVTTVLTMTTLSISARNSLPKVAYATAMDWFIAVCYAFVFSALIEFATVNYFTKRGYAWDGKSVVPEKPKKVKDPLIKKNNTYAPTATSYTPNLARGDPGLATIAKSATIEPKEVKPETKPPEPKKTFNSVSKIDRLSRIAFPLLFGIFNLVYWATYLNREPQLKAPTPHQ
α1β3 receptors, sequence (P63079 26-473): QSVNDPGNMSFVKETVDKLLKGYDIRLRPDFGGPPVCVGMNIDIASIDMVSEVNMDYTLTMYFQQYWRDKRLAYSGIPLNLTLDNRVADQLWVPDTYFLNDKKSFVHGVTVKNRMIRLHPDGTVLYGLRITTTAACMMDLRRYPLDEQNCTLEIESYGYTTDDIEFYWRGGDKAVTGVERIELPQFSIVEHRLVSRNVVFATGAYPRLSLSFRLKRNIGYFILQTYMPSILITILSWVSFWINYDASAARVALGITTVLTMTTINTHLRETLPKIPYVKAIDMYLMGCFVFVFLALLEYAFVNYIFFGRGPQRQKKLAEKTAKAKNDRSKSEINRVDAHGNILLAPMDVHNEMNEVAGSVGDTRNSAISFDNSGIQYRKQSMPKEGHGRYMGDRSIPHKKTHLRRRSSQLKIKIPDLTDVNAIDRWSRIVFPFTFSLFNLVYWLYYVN

[2] = target: recombinant rat α1β3γ2 receptors (Rattus norvegicus, UniProt P18508+P62813); test: Two-electrode voltage clamp of GABA-induced chloride currents in Xenopus oocytes; format: cell-based; conditions: for efficacy (% GABA EC3): ns = not significant
[3] = target: recombinant rat α2β3γ2 receptors (Rattus norvegicus, UniProt P18508+P23576); test: as above; format: cell-based
[4] = target: recombinant rat α6β3γ2 receptors (Rattus norvegicus, UniProt P18508+P30191); test: as above; format: cell-based; conditions: for efficacy (% GABA EC3): α6β3γ2, ns = not significant
[5] = target: recombinant rat α4β3γ2 receptors (Rattus norvegicus, UniProt P18508+P28471); test: as above; format: cell-based; conditions: for efficacy (% GABA EC3): α4β3γ2, ns = not significant
[6] = target: recombinant rat α5β3γ2 receptors (Rattus norvegicus, UniProt P18508+P19969); test: as above; format: cell-based; conditions: for efficacy (% GABA EC3): α5β3γ2, ns = not significant
recombinant rat α5β3γ2 receptors, sequence (P19969 32-464 limits assumed): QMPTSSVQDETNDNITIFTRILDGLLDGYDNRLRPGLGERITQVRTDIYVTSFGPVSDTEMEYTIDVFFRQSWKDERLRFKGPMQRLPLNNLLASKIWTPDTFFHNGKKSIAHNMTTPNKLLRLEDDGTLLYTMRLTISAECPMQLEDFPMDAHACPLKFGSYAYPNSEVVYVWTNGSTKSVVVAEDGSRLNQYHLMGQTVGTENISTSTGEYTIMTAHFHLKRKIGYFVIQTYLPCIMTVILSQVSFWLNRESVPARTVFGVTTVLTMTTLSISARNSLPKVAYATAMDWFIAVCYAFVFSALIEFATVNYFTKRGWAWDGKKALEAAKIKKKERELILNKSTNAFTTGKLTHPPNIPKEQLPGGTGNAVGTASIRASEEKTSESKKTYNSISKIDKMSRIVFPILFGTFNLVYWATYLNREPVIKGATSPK
recombinant rat α5β3γ2 receptors, sequence (P63079 26-473 partner): as the sequence (P63079 26-473) above
recombinant rat α5β3γ2 receptors, sequence (P18508 39-466): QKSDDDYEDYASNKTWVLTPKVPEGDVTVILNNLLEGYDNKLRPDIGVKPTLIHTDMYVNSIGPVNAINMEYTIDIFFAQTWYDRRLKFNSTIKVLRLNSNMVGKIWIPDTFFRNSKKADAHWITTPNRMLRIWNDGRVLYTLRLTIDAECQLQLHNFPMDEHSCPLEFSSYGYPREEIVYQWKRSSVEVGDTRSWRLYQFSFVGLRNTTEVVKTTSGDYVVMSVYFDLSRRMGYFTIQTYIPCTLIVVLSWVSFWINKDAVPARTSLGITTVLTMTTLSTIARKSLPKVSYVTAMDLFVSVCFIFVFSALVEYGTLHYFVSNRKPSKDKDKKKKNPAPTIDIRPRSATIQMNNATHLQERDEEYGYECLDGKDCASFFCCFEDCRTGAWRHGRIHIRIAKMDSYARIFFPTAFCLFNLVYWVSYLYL

[7] = target: recombinant rat α3β3γ2 receptors (Rattus norvegicus, UniProt P18508+P20236); test: as above; format: cell-based; conditions: for efficacy (% GABA EC3): α3β3γ2, ns = not significant
recombinant rat α3β3γ2 receptors, sequence (P20236 29-493): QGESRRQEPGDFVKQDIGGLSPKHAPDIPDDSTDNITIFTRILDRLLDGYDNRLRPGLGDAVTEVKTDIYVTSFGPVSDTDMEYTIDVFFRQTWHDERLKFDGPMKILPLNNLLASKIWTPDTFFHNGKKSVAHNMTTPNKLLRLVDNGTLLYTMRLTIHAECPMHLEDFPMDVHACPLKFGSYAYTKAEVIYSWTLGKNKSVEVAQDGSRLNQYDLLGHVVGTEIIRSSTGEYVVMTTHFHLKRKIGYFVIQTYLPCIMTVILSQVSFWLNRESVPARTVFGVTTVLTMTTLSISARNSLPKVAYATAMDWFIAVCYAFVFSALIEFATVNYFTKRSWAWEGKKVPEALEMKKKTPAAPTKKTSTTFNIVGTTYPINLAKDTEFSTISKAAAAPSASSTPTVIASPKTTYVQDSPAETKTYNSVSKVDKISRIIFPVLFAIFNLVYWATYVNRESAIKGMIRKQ
recombinant rat α3β3γ2 receptors, sequence (P63079 26-473 partner): as the sequence (P63079 26-473) above
recombinant rat α3β3γ2 receptors, sequence (P18508 39-466): as the sequence (P18508 39-466) above

[8] = system: GABAA receptors of mice containing the point mutation γ2F77I; conditions: receptor binding; ref Ogris et al., 2004; cited from earlier work
[9] = target: recombinant rat α3β3γ2F77I receptors (Rattus norvegicus, UniProt P18508+P20236, F115I); test: Two-electrode voltage clamp of GABA-induced chloride currents in Xenopus oocytes; format: cell-based; conditions: α3β3γ2F77I, ns = not significant
recombinant rat α3β3γ2F77I receptors, sequence (P20236 29-493): as the sequence (P20236 29-493) above
recombinant rat α3β3γ2F77I receptors, sequence (P63079 26-473 partner): as the sequence (P63079 26-473) above
recombinant rat α3β3γ2F77I receptors, sequence (P18508 39-466 F115I): as the sequence (P18508 39-466) above, with F77I counted along it

[10] = system: GABAA receptors containing the γ2F77I mutation; test: Modulation of GABA EC3 in receptors containing the γ2F77I mutation; format: cell-based, rat; conditions: 10 μM; some γ2F77I receptors
[11] = target: recombinant rat α5β3γ2F77I receptors (Rattus norvegicus, UniProt P18508+P19969, F115I); test: Two-electrode voltage clamp of GABA-induced chloride currents in Xenopus oocytes; format: cell-based; conditions: α5β3γ2F77I, ns = not significant
[12] = target: recombinant rat α2β3γ2F77I receptors (Rattus norvegicus, UniProt P18508+P23576, F115I); test: as above; format: cell-based; conditions: α2β3γ2F77I, ns = not significant
α5 receptors = conditions: ref Atack et al., 2006; Quirk et al., 1996; cited from earlier work
[13] = target: recombinant rat α4β3γ2F77I receptors (Rattus norvegicus, UniProt P18508+P28471, F115I); test: Two-electrode voltage clamp of GABA-induced chloride currents in Xenopus oocytes; format: cell-based; conditions: ns = not significant
[14] = target: recombinant rat α6β3γ2F77I receptors (Rattus norvegicus, UniProt P18508+P30191, F115I); test: as above; format: cell-based; conditions: ns = not significant
α3β3γ2 receptors = conditions: 10 μM, ref Atack et al., 2006; cited from earlier work
[15] = 100 nM, α2β3γ2, ns = not significant
[16] = read-out: efficacy (% GABA EC3)

Compound: [Zn+2] [Zn^2+]
- GABA-induced chloride flux reduced to ([1]; 10 μM Zn2+, means ± SEM, n=4): 75.4 ± 3%
- GABA-induced chloride flux reduced to (α1β3 receptors): 5.5 ± 1%
- GABA-induced chloride flux reduced to ([2]; 10 μM Zn2+, α1β3γ2, means ± SEM, n=4): 70.3 ± 3%

Compound: Cc1nnc2ccc(-c3cccc(C(F)(F)F)c3)nn12 [CL 218872, 3-methyl-6-[3-trifluoromethyl-phenyl]-1,2,4-triazolo[4,3-b]pyridazine]
- efficacy (% GABA EC3) [3, 15]: ns
- efficacy (% GABA EC3) ([3]; 1 μM, α2β3γ2, ns = not significant): ns
- efficacy (% GABA EC3) ([3]; 10 μM, α2β3γ2, ns = not significant): 162 ± 3 % GABA EC3
- further fold reduction of potency for enhancing GABA current ([3]; α2β3γ2 versus α3β3γ2): approximately 3 fold
- efficacy (% GABA EC3) ([4]; 100 nM): ns
- efficacy (% GABA EC3) ([4]; 1 μM): ns
- efficacy (% GABA EC3) ([4]; 10 μM): ns
- efficacy (% GABA EC3) ([4]; 10 μM, listed as Cl218872): no significant stimulation
- efficacy (% GABA EC3) ([5]; 100 nM): ns
- efficacy (% GABA EC3) ([5]; 1 μM): ns
- efficacy (% GABA EC3) ([5]; 1 μM, listed as Cl218872): no effect
- efficacy (% GABA EC3) ([5]; 10 μM): 199 ± 27 % GABA EC3
- efficacy (% GABA EC3) ([1]; 100 nM): ns
- efficacy (% GABA EC3) ([1]; 1 μM): ns
- efficacy (% GABA EC3) ([1]; 10 μM): 132 ± 4 % GABA EC3
- efficacy (% GABA EC3) ([6]; 100 nM): ns
- efficacy (% GABA EC3) ([6]; 1 μM): 114 ± 1 % GABA EC3
- efficacy (% GABA EC3) ([6]; 10 μM): 128 ± 2 % GABA EC3
- efficacy (% GABA EC3) ([7]; 100 nM): 114 ± 2 % GABA EC3
- efficacy (% GABA EC3) ([7]; 1 μM): 138 ± 7 % GABA EC3
- efficacy (% GABA EC3) ([7]; 10 μM): 195 ± 8 % GABA EC3
- fold reduced potency for enhancing GABA EC3 ([7]; α3β3γ2 versus α1β3γ2): approximately 3 fold
- shift in affinity caused by γ2F77I [8]: ~900 fold
- efficacy (% GABA EC3) ([9]; 100 nM): ns
- efficacy (% GABA EC3) ([9]; 1 μM): ns
- efficacy (% GABA EC3) ([9]; 10 μM): 125 ± 3 % GABA EC3
- stimulation of GABA-induced chloride flux [10]: 20–40%
- efficacy (% GABA EC3) ([2]; 100 nM, α1β3γ2): 119 ± 7 % GABA EC3
- efficacy (% GABA EC3) ([2]; 1 μM, α1β3γ2): 172 ± 10 % GABA EC3
- efficacy (% GABA EC3) ([2]; 10 μM, α1β3γ2): 214 ± 13 % GABA EC3
- efficacy (% GABA EC3) ([11]; 100 nM): ns
- efficacy (% GABA EC3) ([11]; 1 μM): ns
- efficacy (% GABA EC3) ([11]; 10 μM): 120 ± 3 % GABA EC3
- efficacy (% GABA EC3) ([12]; 100 nM): ns
- efficacy (% GABA EC3) ([12]; 1 μM): ns
- efficacy (% GABA EC3) ([12]; 10 μM): ns

Compound: CCOC(=O)c1ncn2c1C1CCCN1C(=O)c1cc(OC)ccc1-2 [L-655,708, ethyl-7-methoxy-11,12,13,13a-tetrahydro-9-oxo-9H-imidazo[1,5-a]pyrrolo[2,1-c][1,4] benzodiazepine-1-carboxylate]
- efficacy (% GABA EC3) ([3]; 10 nM, α2β3γ2, ns = not significant): ns
- efficacy (% GABA EC3) [3, 15]: ns
- activity at 1 µM ([3]; read-out: efficacy (% GABA EC3), 1 μM, α2β3γ2, ns = not significant): 93 ± 1%
- activity at 10 µM ([3]; read-out: efficacy (% GABA EC3), 10 μM, α2β3γ2, ns = not significant): 90%
- EC50 [4]: > 470 nM
- activity at 0.01 µM [4, 16]: 118 ± 4%
- activity at 0.1 µM [4, 16]: 131 ± 12%
- activity at 1 µM [4, 16]: 176 ± 25%
- activity at 10 µM [4, 16]: 199 ± 31%
- selectivity for α5 receptors in receptor binding assays (α5 receptors): 30–50 fold
- EC50 [5]: 168 ± 71 nM
- efficacy (% GABA EC3) ([5]; 10 nM): ns
- activity at 0.1 µM [5, 16]: 143 ± 12%
- activity at 1 µM [5, 16]: 215 ± 4%
- activity at 10 µM [5, 16]: 224 ± 15%
- efficacy (% GABA EC3) ([13]; 10 nM): ns
- efficacy (% GABA EC3) ([13]; 100 nM): ns
- efficacy (% GABA EC3) ([13]; 1 μM): ns
- efficacy (% GABA EC3) ([13]; 10 μM): ns
- efficacy (% GABA EC3) ([1]; 10 nM): ns
- efficacy (% GABA EC3) ([1]; 100 nM): ns
- efficacy (% GABA EC3) ([1]; 1 μM): ns
- efficacy (% GABA EC3) ([1]; 10 μM): ns
- efficacy (% GABA EC3) ([6]; 10 nM): ns
- activity at 0.1 µM [6, 16]: 91 ± 1%
- activity at 1 µM [6, 16]: 84 ± 5%
- activity at 10 µM [6, 16]: 66 ± 7%
- EC50 [7]: 10 ± 3 nM
- activity at 0.01 µM [7, 16]: 113 ± 1%
- activity at 0.1 µM [7, 16]: 126 ± 1%
- activity at 1 µM [7, 16]: 131 ± 4%
- activity at 10 µM [7, 16]: 126 ± 4%
- shift in affinity caused by γ2F77I [8]: > 1000 fold
- efficacy (% GABA EC3) ([14]; 10 nM): ns
- efficacy (% GABA EC3) ([14]; 100 nM): ns
- efficacy (% GABA EC3) ([14]; 1 μM): ns
- efficacy (% GABA EC3) ([14]; 10 μM): ns
- efficacy (% GABA EC3) ([9]; 10 nM): ns
- efficacy (% GABA EC3) ([9]; 100 nM): ns
- efficacy (% GABA EC3) ([9]; 1 μM): ns
- efficacy (% GABA EC3) ([9]; 10 μM): ns
- efficacy (% GABA EC3) ([2]; 10 nM, α1β3γ2): ns
- efficacy (% GABA EC3) ([2]; 100 nM, α1β3γ2): ns
- efficacy (% GABA EC3) ([2]; 1 μM, α1β3γ2): ns
- efficacy (% GABA EC3) ([2]; 10 μM, α1β3γ2): 90 ± 4 % GABA EC3
- activity at 10 µM [2, 16]: 90%
- efficacy (% GABA EC3) ([11]; 10 nM): ns
- efficacy (% GABA EC3) ([11]; 100 nM): ns
- efficacy (% GABA EC3) ([11]; 1 μM): ns
- efficacy (% GABA EC3) ([11]; 10 μM): ns
- efficacy (% GABA EC3) ([12]; 10 nM): ns
- efficacy (% GABA EC3) ([12]; 100 nM): ns
- efficacy (% GABA EC3) ([12]; 1 μM): ns
- efficacy (% GABA EC3) ([12]; 10 μM): ns
- reduction of GABA-induced chloride flux to (α3β3γ2 receptors): 90%
